Patent US6613747B2, “6-O-carbamoyl ketolide antibacterials” (Ortho-McNeil Pharmaceutical, Inc., priority 2000, dated 2003)
Converted amounts (≈) assume the structure as drawn.

Assays:
Assay in all cases: MIC, microdilution broth method (NCCLS)
Type in all cases: cell-based
E. coli OC2605 = conditions: A: E. coli OC2605, 35° C., 16-20 hours
Description: (§1) Minimal inhibitory concentration (MIC) has been an indicator of in vitro antibacterial activity widely used in the art. The in vitro antimicrobial activity of the compounds was determined by the microdilution broth method following the test method from the National Committee for Clinical Laboratory Standards (NCCLS). This method is described in the NCCLS Document M7-A4, Vol. 17, No. 2, “Methods for Dilution Antimicrobial Susceptibility Test for Bacteria that Grow Aerobically—Fourth Edition”, which is incorporated herein by reference.
(§2) In this method two-fold serial dilutions of drug in cation adjusted Mueller-Hinton broth are added to wells in microdilution trays. The test organisms are prepared by adjusting the turbidity of actively growing broth cultures so that the final concentration of test organism after it is added to the wells is approximately 5×10^4 CFU/well.
(§3) Following inoculation of the microdilution trays, the trays are incubated at 35° C. for 16-20 hours and then read. […] The amount of growth in the wells containing the test compound is compared with the amount of growth in the growth-control wells (no test compound) used in each tray. As set forth in Table 1, compounds of the present invention were tested against a variety of Gram positive and Gram negative pathogenic bacteria resulting in a range of activities depending on the organism tested.

E. faecalis ATCC29212 = conditions: C: E. faecalis ATCC29212, 35° C., 16-20 hours
Description: as §1, §2, §3

S. pneumoniae ATCC49619 = conditions: D: S. pneumoniae ATCC49619, 35° C., 16-20 hours
Description: as §1, §2, §3

S. aureus ATCC29213 = conditions: B: S. aureus ATCC29213, 35° C., 16-20 hours
Description: as §1, §2, §3

H. influenzae ATCC49247 = conditions: E: H. influenzae ATCC49247, 35° C., 16-20 hours
Description: as §1, §2, §3

SMILES | MIC (E. coli OC2605) [µg/mL] | MIC (E. faecalis ATCC29212) [µg/mL] | MIC (S. pneumoniae ATCC49619) [µg/mL] | MIC (S. aureus ATCC29213) [µg/mL] | MIC (H. influenzae ATCC49247) [µg/mL]
CC[C@H]1OC(=O)[C@H](C)C(=O)[C@H](C)[C@@H](O[C@@H]2O[C@H](C)C[C@H](N(C)C)[C@H]2O)[C@](C)(OC(=O)NC/C=C/c2ccc(-c3ccccn3)cc2)C[C@@H](C)C(=O)[C@H](C)[C@H]2NC(=O)O[C@@]21C [Compound 19] | 16 (≈ 19.2 µM) | 0.12 (≈ 0.144 µM) | 0.03 (≈ 0.0359 µM) | 0.12 (≈ 0.144 µM) | 4 (≈ 4.79 µM)
CC[C@H]1OC(=O)[C@H](C)C(=O)[C@H](C)[C@@H](O[C@@H]2O[C@H](C)C[C@H](N(C)C)[C@H]2O)[C@](C)(OC(=O)NC/C=C/c2ccc(-n3cncn3)cc2)C[C@@H](C)C(=O)[C@H](C)[C@H]2NC(=O)O[C@@]21C [Compound 20] | 16 (≈ 19.4 µM) | 0.06 (≈ 0.0727 µM) | 0.03 (≈ 0.0364 µM) | 0.12 (≈ 0.145 µM) | 4 (≈ 4.85 µM)
CC[C@H]1OC(=O)[C@H](C)C(=O)[C@H](C)[C@@H](O[C@@H]2O[C@H](C)C[C@H](N(C)C)[C@H]2O)[C@](C)(OC(=O)NC/C(C)=C/c2ccccc2)C[C@@H](C)C(=O)[C@H](C)[C@H]2NC(=O)O[C@@]21C [Compound 21] | >16 | 0.25 (≈ 0.324 µM) | 0.06 (≈ 0.0777 µM) | 0.5 (≈ 0.648 µM) | 4 (≈ 5.18 µM)
CC[C@H]1OC(=O)[C@H](C)C(=O)[C@H](C)[C@@H](O[C@@H]2O[C@H](C)C[C@H](N(C)C)[C@H]2O)[C@](C)(OC(=O)NC/C=C/c2ccc(-n3ccnc3)cc2)C[C@@H](C)C(=O)[C@H](C)[C@H]2NC(=O)O[C@@]21C [Compound 22] | 8 (≈ 9.71 µM) | 0.06 (≈ 0.0728 µM) | 0.03 (≈ 0.0364 µM) | 0.25 (≈ 0.303 µM) | 2 (≈ 2.43 µM)
CC[C@H]1OC(=O)[C@H](C)C(=O)[C@H](C)[C@@H](O[C@@H]2O[C@H](C)C[C@H](N(C)C)[C@H]2O)[C@](C)(OC(=O)NC/C=C/c2ccc(-c3cccnc3)cc2)C[C@@H](C)C(=O)[C@H](C)[C@H]2NC(=O)O[C@@]21C [Compound 23] | 16 (≈ 19.2 µM) | 0.12 (≈ 0.144 µM) | 0.06 (≈ 0.0719 µM) | 0.25 (≈ 0.299 µM) | 2 (≈ 2.4 µM)
CC[C@H]1OC(=O)[C@H](C)C(=O)[C@H](C)[C@@H](O[C@@H]2O[C@H](C)C[C@H](N(C)C)[C@H]2O)[C@](C)(OC(=O)NCCCc2ccncc2)C[C@@H](C)C(=O)[C@H](C)[C@H]2NC(=O)O[C@@]21C [Compound 24] | 16 (≈ 21 µM) | 0.12 (≈ 0.158 µM) | 0.06 (≈ 0.0789 µM) | 1 (≈ 1.31 µM) | 2 (≈ 2.63 µM)
CC[C@H]1OC(=O)[C@H](C)C(=O)[C@H](C)[C@@H](O[C@@H]2O[C@H](C)C[C@H](N(C)C)[C@H]2O)[C@](C)(OC(=O)NCCCc2ccnc3ccccc23)C[C@@H](C)C(=O)[C@H](C)[C@H]2NC(=O)O[C@@]21C [Compound 25] | 8 (≈ 9.86 µM) | 0.06 (≈ 0.074 µM) | 0.03 (≈ 0.037 µM) | 0.25 (≈ 0.308 µM) | 4 (≈ 4.93 µM)
CC[C@H]1OC(=O)[C@H](C)C(=O)[C@H](C)[C@@H](O[C@@H]2O[C@H](C)C[C@H](N(C)C)[C@H]2O)[C@](C)(OC(=O)NC/C=C/c2ccc(-c3ccncc3)cc2)C[C@@H](C)C(=O)[C@H](C)[C@H]2NC(=O)O[C@@]21C [Compound 26] | >16 | 0.12 (≈ 0.144 µM) | 0.03 (≈ 0.0359 µM) | 0.5 (≈ 0.599 µM) | 2 (≈ 2.4 µM)
CC[C@H]1OC(=O)[C@H](C)C(=O)[C@H](C)[C@@H](O[C@@H]2O[C@H](C)C[C@H](N(C)C)[C@H]2O)[C@](C)(OC(=O)NC/C=C/c2ccc(-c3cncnc3)cc2)C[C@@H](C)C(=O)[C@H](C)[C@H]2NC(=O)O[C@@]21C [Compound 27] | 16 (≈ 19.1 µM) | 0.12 (≈ 0.144 µM) | 0.06 (≈ 0.0718 µM) | 0.25 (≈ 0.299 µM) | 4 (≈ 4.78 µM)
CC[C@H]1OC(=O)[C@H](C)C(=O)[C@H](C)[C@@H](O[C@@H]2O[C@H](C)C[C@H](N(C)C)[C@H]2O)[C@](C)(OC(=O)NCc2ccc(-c3cncnc3)cc2)C[C@@H](C)C(=O)[C@H](C)[C@H]2NC(=O)O[C@@]21C [Compound 28] | 16 (≈ 19.8 µM) | 0.06 (≈ 0.0741 µM) | 0.03 (≈ 0.037 µM) | 0.25 (≈ 0.309 µM) | 4 (≈ 4.94 µM)
CC[C@H]1OC(=O)[C@H](C)C(=O)[C@H](C)[C@@H](O[C@@H]2O[C@H](C)C[C@H](N(C)C)[C@H]2O)[C@](C)(OC(=O)NCC#Cc2cnc3ccccc3c2)C[C@@H](C)C(=O)[C@H](C)[C@H]2NC(=O)O[C@@]21C [Compound 29] | 16 (≈ 19.8 µM) | 0.06 (≈ 0.0744 µM) | 0.03 (≈ 0.0372 µM) | 0.5 (≈ 0.62 µM) | 2 (≈ 2.48 µM)
